According to ChEMBL document CHEMBL1201862, “PubChem BioAssay data set” (2004):
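Exposure lasted 48 hours, with cells grown in 96-well plates and compounds tested at five concentrations. GI50 marks 50% less growth.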 Activity calls are given as the source filed them. Cut-off read from the data, not from the text of the source: active = GI50 up to about 1.1 µM and inactive = higher.

Experiments:
Assay in all cases: DTP human tumour cell line panel, 48 h
OVCAR-5 = tested on: OVCAR-5
KM12 = tested on: KM12
MOLT-4 = tested on: MOLT-4
LOX IMVI = tested on: LOX IMVI
SN12C = tested on: SN12C
MDA-MB-231 = tested on: MDA-MB-231
NCI-H226 = tested on: NCI-H226
OVCAR-8 = tested on: OVCAR-8
COLO 205 = tested on: COLO 205
BT-549 = tested on: BT-549
SNB-19 = tested on: SNB-19
HCT-15 = tested on: HCT-15
UACC-257 = tested on: UACC-257
RXF 393 = tested on: RXF 393
K562 = tested on: K562
NCI/ADR-RES = tested on: NCI/ADR-RES
RPMI-8226 = tested on: RPMI-8226
SR = tested on: SR
Malme-3M = tested on: Malme-3M
SK-MEL-5 = tested on: SK-MEL-5

Row | Structure (SMILES) | GI50 (OVCAR-5) | GI50 (KM12) | GI50 (MOLT-4) | GI50 (LOX IMVI) | GI50 (SN12C) | GI50 (MDA-MB-231) | GI50 (NCI-H226) | GI50 (OVCAR-8) | GI50 (COLO 205) | GI50 (BT-549) | GI50 (SNB-19) | GI50 (HCT-15) | GI50 (UACC-257) | GI50 (RXF 393) | GI50 (K562) | GI50 (NCI/ADR-RES) | GI50 (RPMI-8226) | GI50 (SR) | GI50 (Malme-3M) | GI50 (SK-MEL-5)
1 | Cn1c(-c2cccs2)cc(-c2cccs2)c1-c1cccs1 | > 100 µM (inactive) | 35.7 µM (inactive) | 38.5 µM (inactive) | 35.8 µM (inactive) | > 100 µM (inactive) | 98.9 µM (inactive) | > 100 µM (inactive) | > 100 µM (inactive) | 8.95 µM (inactive) | > 100 µM (inactive) | > 100 µM (inactive) | 21.8 µM | 16.5 µM (inactive) | 54.2 µM (inactive) | 51.8 µM (inactive) | > 100 µM (inactive) | 20.4 µM (inactive) | 13.6 µM (inactive) | > 100 µM (inactive) | 14.5 µM (inactive)
2 | CCCCCCCCCCCCCCCCNc1ccn(C2CC(O)C(COC(c3ccccc3)(c3ccccc3)c3ccc(OC)cc3)O2)c(=O)n1 (stereo not given) | > 100 µM (inactive) | > 100 µM (inactive) | 49.3 µM (inactive) | > 100 µM (inactive) | > 100 µM (inactive) | > 100 µM (inactive) | > 100 µM (inactive) | > 100 µM (inactive) | > 100 µM (inactive) | > 100 µM (inactive) | > 100 µM (inactive) | > 100 µM | > 10 µM (inactive) | > 100 µM (inactive) | > 100 µM (inactive) | > 100 µM (inactive) | > 100 µM (inactive) | 98.4 µM (inactive) | > 100 µM (inactive) | > 100 µM (inactive)
